From patent US12421253B2 (Mirati Therapeutics, Inc., priority 2020, dated 2025)

What was measured:
KRas^G12C = KRas^G12C (Homo sapiens, UniProt P01116, G12C); experiment: biochemical
KRas^G12V = biological target: T1, KRas^G12V (Homo sapiens, UniProt P01116, G12V); experiment: KRas binding assay (TR-FRET displacement of Cy5 labelled tracer)
T1 construct: […]; biotin (biotinylated); purchased Accelegan Inc

KRas^G12D = biological target: T2, KRas^G12D (Homo sapiens, UniProt P01116, G12D); experiment: as above
T2 construct: […]; biotin (biotinylated); purchased Accelegan Inc
T2 sequence (P01116 1-169 isoform P01116-2 G12D): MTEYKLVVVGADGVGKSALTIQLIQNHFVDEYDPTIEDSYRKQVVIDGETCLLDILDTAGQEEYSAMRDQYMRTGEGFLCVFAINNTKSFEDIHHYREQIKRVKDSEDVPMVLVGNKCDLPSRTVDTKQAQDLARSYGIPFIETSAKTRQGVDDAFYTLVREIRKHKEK

KRas^G12S = biological target: T3, KRas^G12S (Homo sapiens, UniProt P01116, G12S); experiment: as above
T3 construct: […]; biotin (biotinylated); purchased Accelegan Inc
T3 sequence (P01116 1-169 isoform P01116-2 G12S): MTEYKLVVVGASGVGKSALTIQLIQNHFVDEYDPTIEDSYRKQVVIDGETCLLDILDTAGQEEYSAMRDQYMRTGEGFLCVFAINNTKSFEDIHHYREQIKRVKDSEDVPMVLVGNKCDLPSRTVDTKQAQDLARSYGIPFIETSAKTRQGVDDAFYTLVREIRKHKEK

KRas^WT = biological target: T4, KRas^WT (Homo sapiens, UniProt P01116); experiment: as above
T4 construct: […]; biotin (biotinylated); purchased Accelegan Inc
T4 sequence (P01116 1-169 isoform P01116-2): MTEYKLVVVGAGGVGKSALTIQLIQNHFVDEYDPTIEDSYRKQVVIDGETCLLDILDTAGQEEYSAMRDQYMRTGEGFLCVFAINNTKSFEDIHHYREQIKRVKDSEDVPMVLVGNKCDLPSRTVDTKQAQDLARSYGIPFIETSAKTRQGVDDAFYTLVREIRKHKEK

KRas^Q61H = KRas^Q61H (Homo sapiens, UniProt P01116, Q61H); experiment: biochemical
KRas^Q61H, sequence (P01116 1-169 isoform P01116-2 Q61H): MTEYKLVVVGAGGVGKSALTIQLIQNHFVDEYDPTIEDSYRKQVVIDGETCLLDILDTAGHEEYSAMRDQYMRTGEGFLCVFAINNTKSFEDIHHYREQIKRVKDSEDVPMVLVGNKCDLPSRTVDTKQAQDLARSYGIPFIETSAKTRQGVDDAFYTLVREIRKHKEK

KRas^G12R = biological target: T5, KRas^G12R (Homo sapiens, UniProt P01116, G12R); experiment: KRas binding assay (TR-FRET displacement of Cy5 labelled tracer)
T5 construct: […]; biotin (biotinylated); purchased Accelegan Inc
T5 sequence (P01116 1-169 isoform P01116-2 G12R): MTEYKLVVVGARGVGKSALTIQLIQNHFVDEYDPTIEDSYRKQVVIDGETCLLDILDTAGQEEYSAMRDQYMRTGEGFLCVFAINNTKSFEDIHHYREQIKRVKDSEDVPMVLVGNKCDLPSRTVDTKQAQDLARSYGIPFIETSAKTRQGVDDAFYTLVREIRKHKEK

KRas^G13D = KRas^G13D (Homo sapiens, UniProt P01116, G13D); experiment: biochemical
KRas^G13D, sequence (P01116 1-169 isoform P01116-2 G13D): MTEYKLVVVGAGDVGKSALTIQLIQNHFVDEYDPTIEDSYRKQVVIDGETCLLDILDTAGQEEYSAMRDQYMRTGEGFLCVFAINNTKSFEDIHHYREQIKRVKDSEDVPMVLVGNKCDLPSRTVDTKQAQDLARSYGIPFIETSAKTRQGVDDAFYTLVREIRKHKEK

KRas^G12A = biological target: T6, KRas^G12A (Homo sapiens, UniProt P01116, G12A); experiment: KRas binding assay (TR-FRET displacement of Cy5 labelled tracer)
T6 construct: […]; biotin (biotinylated); purchased Accelegan Inc
T6 sequence (P01116 1-169 isoform P01116-2 G12A): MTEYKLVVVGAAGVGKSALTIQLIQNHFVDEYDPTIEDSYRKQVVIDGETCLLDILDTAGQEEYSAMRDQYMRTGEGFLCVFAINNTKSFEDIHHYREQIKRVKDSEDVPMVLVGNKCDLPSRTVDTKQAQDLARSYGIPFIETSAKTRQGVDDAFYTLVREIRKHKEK

KRas^G12C, sequence (P01116 1-169 isoform P01116-2 G12C): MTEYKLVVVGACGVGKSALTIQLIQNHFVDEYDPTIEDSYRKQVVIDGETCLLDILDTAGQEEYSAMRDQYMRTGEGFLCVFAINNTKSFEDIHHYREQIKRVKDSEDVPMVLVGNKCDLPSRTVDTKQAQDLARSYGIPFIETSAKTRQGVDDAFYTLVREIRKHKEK
T1 sequence (P01116 1-169 isoform P01116-2 G12V): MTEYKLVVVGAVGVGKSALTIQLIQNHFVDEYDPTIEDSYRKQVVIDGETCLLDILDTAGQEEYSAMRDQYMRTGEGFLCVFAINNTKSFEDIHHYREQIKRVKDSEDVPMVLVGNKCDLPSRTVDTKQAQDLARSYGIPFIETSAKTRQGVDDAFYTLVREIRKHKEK

Row | Structure (SMILES) | IC50 (KRas^G12C) [µM] | IC50 (KRas^G12V) [µM] | IC50 (KRas^G12D) [µM] | IC50 (KRas^G12S) [µM] | IC50 (KRas^WT) [µM] | IC50 (KRas^Q61H) [µM] | IC50 (KRas^G12R) [µM] | IC50 (KRas^G13D) [µM] | IC50 (KRas^G12A) [µM]
1 | CCc1cccc2cccc(N3CCc4c(nc(OCC56CCCN5CCC6)nc4N4CCC(CO)C(O)C4)C3)c12 (stereo not drawn) [Example 86, 1-(7-(8-ethylnaphthalen-1-yl)-2-((tetrahydro-1H-pyrrolizin-7a(5H)-yl)methoxy)-5,6,7,8-tetrahydropyrido[3,4-d]pyrimidin-4-yl)-4-(hydroxymethyl)piperidin-3-ol] | 0.576 | 0.498 | 1.32 | 0.304 | 0.158 | 0.194 | 0.465 | 0.151 | 0.225
2 | CCc1cccc2cccc(N3CCc4c(nc(OCC56CCCN5CCC6)nc4NCc4nnc(N)o4)C3)c12 [Example 136, 5-(((7-(8-ethylnaphthalen-1-yl)-2-((tetrahydro-1H-pyrrolizin-7a(5H)-yl)methoxy)-5,6,7,8-tetrahydropyrido[3,4-d]pyrimidin-4-yl)amino)methyl)-1,3,4-oxadiazol-2-amine] | 0.969 | 0.868 | 3.39 | 1.99 | 1.56 | 2.3 | 1.63 | 3.28 | 1.54
3 | CCc1cccc2cccc(N3CCc4c(nc(OCC56CCCN5CCC6)nc4N4CCCCCCC4)C3)c12 [Example 54, 4-(azocan-1-yl)-7-(8-ethylnaphthalen-1-yl)-2-((hexahydro-1H-pyrrolizin-7a-yl)methoxy)-5,6,7,8-tetrahydropyrido[3,4-d]pyrimidine] | 0.755 | 0.707 | 1.46 | 0.924 | 0.943 | 1.23 | 0.663 | 1.07 | 0.767
4 | CCc1cccc2cccc(N3CCc4c(nc(OCC56CCCN5CCC6)nc4N4CCOCC(O)C4)C3)c12 (stereo not drawn) [Example 6, 4-(7-(8-ethylnaphthalen-1-yl)-2-((tetrahydro-1H-pyrrolizin-7a(5H)-yl)methoxy)-5,6,7,8-tetrahydropyrido[3,4-d]pyrimidin-4-yl)-1,4-oxazepan-6-ol] | 0.088 | 0.118 | 0.31 | 0.1 | 0.104 | 0.132 | 0.071 | 0.159 | 0.086
5 | CCc1cccc2cccc(N3CCc4c(nc(OCC56CCCN5CCC6)nc4N4CCC(c5[nH]ncc5N)C4)C3)c12 (stereo not drawn) [Example 46, 5-(1-(7-(8-ethylnaphthalen-1-yl)-2-((hexahydro-1H-pyrrolizin-7a-yl)methoxy)-5,6,7,8-tetrahydropyrido[3,4-d]pyrimidin-4-yl)pyrrolidin-3-yl)-1H-pyrazol-4-amine] | 0.401 | 0.232 | 6.75 | 0.611 | 1.82 | 2.23 | 0.277 | 2.86 | 0.448
6 | CCc1cccc2cccc(N3CCc4c(nc(OCC56CCCN5CCC6)nc4N4CC(C)CC(C(N)=O)C4)C3)c12 (stereo not drawn) [Example 105, 1-(7-(8-ethylnaphthalen-1-yl)-2-((tetrahydro-1H-pyrrolizin-7a(5H)-yl)methoxy)-5,6,7,8-tetrahydropyrido[3,4-d]pyrimidin-4-yl)-5-methylpiperidine-3-carboxamide] | 0.457 | 0.368 | 0.607 | 0.385 | 0.469 | 0.6 | 0.461 | 0.566 | 0.382
7 | CCc1cccc2cccc(N3CCc4c(nc(OCC56CCCN5CCC6)nc4N4CCCCCC4)C3)c12 [Example 49, 4-(azepan-1-yl)-7-(8-ethylnaphthalen-1-yl)-2-((hexahydro-1H-pyrrolizin-7a-yl)methoxy)-5,6,7,8-tetrahydropyrido[3,4-d]pyrimidine] | 0.273 | 0.184 | 0.465 | 0.364 | 0.579 | 0.703 | 0.167 | 0.662 | 0.317
8 | O=C1NC(=O)C2CN(c3nc(OCC45CCCN4CCC5)nc4c3CCN(c3cccc5cccc(Br)c35)C4)CC12 (stereo not drawn) [Example 78, 5-(7-(8-bromonaphthalen-1-yl)-2-((hexahydro-1H-pyrrolizin-7a-yl)methoxy)-5,6,7,8-tetrahydropyrido[3,4-d]pyrimidin-4-yl)tetrahydropyrrolo[3,4-c]pyrrole-1,3(2H,3aH)-dione] | 0.08 | 0.041 | 0.03 | 0.022 | 0.073 | 0.112 | 0.081 | 0.067 | 0.059
9 | CCc1cccc2cccc(N3CCc4c(nc(OCC56CCCN5CCC6)nc4N4CCCN(C(N)=O)CC4)C3)c12 [Example 95, 4-(7-(8-ethylnaphthalen-1-yl)-2-((tetrahydro-1H-pyrrolizin-7a(5H)-yl)methoxy)-5,6,7,8-tetrahydropyrido[3,4-d]pyrimidin-4-yl)-1,4-diazepane-1-carboxamide] | 0.656 | 0.99 | 4.7 | 0.953 | 0.255 | 0.343 | 0.724 | 0.254 | 0.655
10 | CCc1cccc2cccc(N3CCc4c(nc(OCC56CCCN5CCC6)nc4NC4CN(C(N)=O)C4)C3)c12 [Example 147, 3-((7-(8-ethylnaphthalen-1-yl)-2-((tetrahydro-1H-pyrrolizin-7a(5H)-yl)methoxy)-5,6,7,8-tetrahydropyrido[3,4-d]pyrimidin-4-yl)amino)azetidine-1-carboxamide] | 1.65 | 1.45 | 1.32 | 2.15 | 2.45 | 3.21 | 1.49 | 3.63 | 2.71
11 | CCc1cccc2cccc(N3CCc4c(nc(OCC56CCCN5CCC6)nc4N4CCCC(NC(=O)N(C)C)C4)C3)c12 (stereo not drawn) [Example 91, 3-(1-(7-(8-ethylnaphthalen-1-yl)-2-((tetrahydro-1H-pyrrolizin-7a(5H)-yl)methoxy)-5,6,7,8-tetrahydropyrido[3,4-d]pyrimidin-4-yl)piperidin-3-yl)-1,1-dimethylurea] | 0.382 | 0.435 | 1.04 | 0.459 | 0.765 | 0.963 | 0.229 | 0.919 | 0.292

Second part, the molecule after the results:

Row | IC50 (KRas^G12C) [µM] | IC50 (KRas^G12V) [µM] | IC50 (KRas^G12D) [µM] | IC50 (KRas^G12S) [µM] | IC50 (KRas^WT) [µM] | IC50 (KRas^Q61H) [µM] | IC50 (KRas^G12R) [µM] | IC50 (KRas^G13D) [µM] | IC50 (KRas^G12A) [µM] | Structure (SMILES)
12 | 1.92 | 4.15 | 5.92 | 2.47 | 2.05 | 1.25 | 2.01 | 1.32 | 2.23 | CCc1cccc2cccc(N3CCc4c(nc(OCC56CCCN5CCC6)nc4N4CCCC(c5n[nH]cc5NC(C)=O)C4)C3)c12 (stereo not drawn) [Example 143, N-(3-(1-(7-(8-ethylnaphthalen-1-yl)-2-((tetrahydro-1H-pyrrolizin-7a(5H)-yl)methoxy)-5,6,7,8-tetrahydropyrido[3,4-d]pyrimidin-4-yl)piperidin-3-yl)-1H-pyrazol-4-yl)acetamide]
13 | 0.828 | 2.03 | 4.42 | 1.43 | 1.14 | 1.4 | 0.339 | 1.37 | 1.01 | CCc1cccc2cccc(N3CCc4c(nc(OCC56CCCN5CCC6)nc4N4CCCC(c5ccn(C)n5)C4)C3)c12 (stereo not drawn) [Example 100, 7-(8-ethylnaphthalen-1-yl)-4-(3-(1-methyl-1H-pyrazol-3-yl)piperidin-1-yl)-2-((tetrahydro-1H-pyrrolizin-7a(5H)-yl)methoxy)-5,6,7,8-tetrahydropyrido[3,4-d]pyrimidine]
14 | 0.652 | 0.948 | 1.8 | 0.917 | 1.95 | 1.49 | 0.558 | 1.57 | 0.88 | CCc1cccc2cccc(N3CCc4c(nc(OCC56CCCN5CCC6)nc4N4CCCC(c5cn(C)nn5)C4)C3)c12 (stereo not drawn) [Example 118, 7-(8-ethylnaphthalen-1-yl)-4-(3-(1-methyl-1H-1,2,3-triazol-4-yl)piperidin-1-yl)-2-((tetrahydro-1H-pyrrolizin-7a(5H)-yl)methoxy)-5,6,7,8-tetrahydropyrido[3,4-d]pyrimidine]
15 | 0.47 | 1.87 | 4.88 | 1.15 | 1.01 | 0.844 | 0.165 | 1.47 | 1.14 | CCc1cccc2cccc(N3CCc4c(nc(OCC56CCCN5CCC6)nc4N4CCCC(c5cc(=O)[nH][nH]5)C4)C3)c12 (stereo not drawn) [Example 87, 5-(1-(7-(8-ethylnaphthalen-1-yl)-2-((tetrahydro-1H-pyrrolizin-7a(5H)-yl)methoxy)-5,6,7,8-tetrahydropyrido[3,4-d]pyrimidin-4-yl)piperidin-3-yl)-1,2-dihydro-3H-pyrazol-3-one]
16 | 3.79 | 8.35 | 7.51 | 3.43 | 4.08 | 3.98 | 2.79 | 3.41 | 5.22 | CCc1cccc2cccc(N3CCc4c(nc(OCC56CCCN5CCC6)nc4N4CCCC(c5nc(C)no5)C4)C3)c12 (stereo not drawn) [Example 162, 5-(1-(7-(8-ethylnaphthalen-1-yl)-2-((tetrahydro-1H-pyrrolizin-7a(5H)-yl)methoxy)-5,6,7,8-tetrahydropyrido[3,4-d]pyrimidin-4-yl)piperidin-3-yl)-3-methyl-1,2,4-oxadiazole]
